In PubChem BioAssay AID1189 (EPA DSSTox, 2008):
Calls of active or inactive are those of the source.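 Rule for the calls: active = a tumor-causing dose value with its tumor site reported for any sex and species group of a rodent or other animal cancer study; inconclusive = only studies judged inadequate by the national testing program; inactive = tested in at least one study, none positive.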

assay: DSSTox (CPDBAS) Carcinogenic Potency Database Summary SingleCellCall Results; details: animal chronic carcinogenicity bioassays, CPDB summary call
How it was run: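 Categorical carcinogenicity call compiled from published chronic rodent and other animal cancer bioassays; based on the most positive result across experiments for each sex-species, assigned on minimal evidence for or against activity.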

Q: Which outcome does the source give for Nc1cc(S(=O)(=O)[O-])cc2cc(S(=O)(=O)[O-])c(N=Nc3ccc(-c4ccc(N=Nc5c(S(=O)(=O)[O-])cc6cc(S(=O)(=O)[O-])cc(N)c6c5O)c(O)c4)cc3O)c(O)c12.[Cu].[Cu].[Na+].[Na+].[Na+].[Na+] here?
A: active; inactive

Q: With [O-]/[N+](=N\O)c1ccccc1 as the compound, how does the outcome read?
A: active; inactive

Q: Which outcome does the source give for C=CC(N)=O here?
A: active; inactive

Q: Which outcome does the source give for C=C1C(C)(C)[C@@]2(Cl)C(Cl)[C@]1(Cl)C(Cl)(Cl)C2(Cl)Cl (some centres undefined) here?
A: active

Q: For Nc1ccc(N)cc1, which outcome is on record?
A: inactive

Q: Which outcome does the source give for ClCOCCl here?
A: active; inactive

Q: For O=c1[nH]nc(-c2ccc([N+](=O)[O-])o2)o1, which outcome is on record?
A: active; inactive

Q: Which outcome does the source give for O=NN(CCO)CC(O)CO (centres undefined) here?
A: active

Q: For CNC(=O)CSP(=S)(OC)OC, which outcome is on record?
A: inactive

Q: With ClCc1ccccc1 as the compound, how does the outcome read?
A: active

Q: Which outcome does the source give for CN(N=O)C(=O)c1ccccc1C(=O)N(C)N=O here?
A: inactive

Q: For CN(C)[C@@H]1C(=O)C(C(N)=O)=C(O)[C@@]2(O)C(=O)C3=C(O)c4c(O)cccc4[C@@](C)(O)[C@H]3[C@H](O)[C@@H]12, which outcome is on record?
A: inactive; active

Q: Which outcome does the source give for Cc1cc(O)c(C)c2c1OC(C)(CCCC(C)CCCC(C)CCCC(C)C)CC2 (centres undefined) here?
A: active

Q: Which outcome does the source give for C1CO1 here?
A: active

Q: For Nc1ccc(Oc2ccc(N)cc2)cc1, which outcome is on record?
A: active

Q: For CC(Cl)Cl, which outcome is on record?
A: inactive; active

Q: Which outcome does the source give for O=C1CCC(=O)O1 here?
A: inactive

Q: With CCOC(=O)CBr as the compound, how does the outcome read?
A: inactive

Q: Which outcome does the source give for CC(=O)O[C@H]1CC[C@@]2(C)C(=CC[C@@H]3[C@@H]2CC[C@]2(C)C(=O)CC[C@@H]32)C1 here?
A: active

Q: With CCCc1cc(=O)[nH]c(=S)[nH]1 as the compound, how does the outcome read?
A: active

Q: Which outcome does the source give for Clc1ccc(Sc2cc(Cl)c(Cl)cc2Cl)cc1 here?
A: inactive

Q: Which outcome does the source give for O=C(O)c1cc(Oc2ccc(C(F)(F)F)cc2Cl)ccc1[N+](=O)[O-] here?
A: active

Q: For CC1=C(C(=O)OC(C)C)C(c2cccc([N+](=O)[O-])c2)C(C(=O)OC2CN(C(c3ccccc3)c3ccccc3)C2)=C(N)N1 (centres undefined), which outcome is on record?
A: inactive; active

Q: For Cc1cc(C(C)(C)C)c(O)c(C(C)(C)C)c1, which outcome is on record?
A: active

Q: Which outcome does the source give for Cc1cc(Cl)ccc1N here?
A: active

Q: For NS(=O)(=O)c1cc(C(=O)O)c(NCc2ccco2)cc1Cl, which outcome is on record?
A: active; inactive

Q: With COc1ccc([C@@H]2CC(=O)c3c(O)cc(O[C@@H]4O[C@H](CO[C@@H]5O[C@@H](C)[C@H](O)[C@@H](O)[C@H]5O)[C@@H](O)[C@H](O)[C@H]4O)cc3O2)cc1OC as the compound, how does the outcome read?
A: inactive

Q: Which outcome does the source give for CN(Cc1cnc2nc(N)nc(N)c2n1)c1ccc(C(=O)N[C@@H](CCC(=O)O)C(=O)O)cc1 here?
A: inactive

Q: Which outcome does the source give for CCCNN here?
A: active

Q: Which outcome does the source give for Nc1ccc(-c2ccccc2)cc1 here?
A: active

Q: Which outcome does the source give for CCc1ccc(C(c2ccc(CC)cc2)C(Cl)Cl)cc1 here?
A: inactive

Q: For CCCCC/C=N/N(C)C=O, which outcome is on record?
A: active

Q: With C#C[C@]1(O)CC[C@H]2[C@@H]3CCc4cc(O)ccc4[C@H]3CC[C@@]21C as the compound, how does the outcome read?
A: active; inactive

Q: Which outcome does the source give for ClC(Cl)Cl here?
A: active
